Data taken from patent publication US10532988B2, “Crystalline forms of neurotrophin mimetic compounds and their salts” (PharmatrophiX, Inc., priority 2009, dated 2020).
Counter-ions that a name gives are not always drawn. Like-named read-outs stand apart in the source and are kept apart here.

Columns and labels:
[1] = Hygroscopicity - dynamic vapor sorption (DVS); type: physicochemical; settings: for mass greater than the original value at 0% RH after desorption: DVS desorption phase, end at 0% RH; for RH up to which the sample did not adsorb much moisture (rapid sorption above): DVS sorption phase from 0% RH; for moisture sorption at 95% RH / moisture sorption at 90% RH: 25° C.
Protocol: Hygroscopicity—Dynamic Vapor Sorption (DVS):
Samples were analyzed using an automated dynamic vapor sorption analyzer. The sample (about 1-10 mg) was dried in the instrument 0% RH for 6 hours.

[2] = Solubility in water (incremental solvent addition, visual observation); settings: for solubility: thermodynamic from solid
Protocol: Milligram size quantities of each sample were placed into a vial. Water was added and the vials were stirred for a few minutes, followed by visual observation for remaining solids. The solvent was incrementally added until the solids were dissolved, or a maximum volume of solvent was added and the experiment was terminated.

[3] = Pharmacokinetic study of salt forms in rat plasma and brain after oral gavage; type: in vivo; settings: for AUC%Extrap / AUCINF / AUCall / Cmax / T1/2 / Tmax / Brain:Plasma Ratio / Maximum Brain Level / Kp at 8 h / AUC / AUC(0-inf) / half-life: male rats, single 25 mg/kg free base by oral gavage; for Brain:Plasma Ratio / Maximum Brain Level / Kp at 8 h: brain at 1, 3 and 8 hours; for Kp at 8 h: brain and plasma, read-out: Brain:Plasma Ratio
Protocol: The objective of this study was to provide preliminary pharmacokinetic information regarding the exposure of different salt forms of LM11A-31 in rat plasma and brain when dosed by oral gavage. Groups consisting of nine male rats received single doses of 25 mg/kg free base by oral gavage. Plasma samples were obtained from three rats per timepoint after administration (0.5, 1, 2, 3, 4, and 8 hours) and brain samples were collected at 1-, 3-, and 8-hour terminations (three rats per time point).
The samples were analyzed by LC-MS/MS to determine the plasma and brain concentrations of the test article. Pharmacokinetic analysis of the plasma concentration data was conducted using noncompartmental analysis with WinNonlin Version 4.1.

[4] = Stability study of salts and free base under stress, HPLC total area normalization; type: physicochemical
Protocol: The scaled up salts and free base were challenged by heat (solids stored at 25 and 60° C. for 1 week), oxidation (solids stored in oxygen headspace at 25° C. for 1 week), light (solids exposed to ≥1×ICH UV confirmatory conditions), and solutions (HPLC diluent) at 25 and 40° C. for 1 week. These samples were analyzed, along with unstressed controls, by HPLC to characterize their stability.
Crystalline forms (i.e., salts and free base) of the present invention were analyzed by total area normalization (TAN). The samples were dissolved in 1:1 Acetonitrile (ACN):Water (H2O) at a concentration of 0.5 mg/mL.
Stressed samples were analyzed using HPLC to determine their impurity profiles.
The stability results shown in Table 10 represent the averages of two injections of duplicate sample preparations.

[5] = Stability study, qualitative proton NMR of stressed samples; type: physicochemical; settings: heat stress (solids stored at 60° C.)
Protocol: To confirm the little or no degradation observed in the HPLC stability study, some samples (solids stored at 60° C. and oxidation) of four of the salts and free base were further analyzed by proton NMR (i.e., HNMR). The analysis was qualitative.

[6] = Oxidation Ambient (oxygen headspace, 25° C., 1 week)
[7] = Photo Stability - Exposed (UV, ICH confirmatory conditions)
[8] = Solution (water and acetonitrile 1:1) - 40 C., 1 week
[9] = Solution (water and acetonitrile 1:1) - Ambient, 1 week

Row | Molecule | mass greater than the original value at 0% RH after desorption [1] | RH up to which the sample did not adsorb much moisture (rapid sorption above) [1] | moisture sorption at 95% RH ([1]; DVS sorption phase) | AUC%Extrap ([3]; plasma) | Maximum Brain Level [3] | HPLC Total Area Normalization - Area % Purity [4, 6] | HPLC Total Area Normalization - Area % Purity ([4]; Photo Stability - Dark Control) | HPLC Total Area Normalization - Area % Purity [4, 7] | HPLC Total Area Normalization - Area % Purity ([4]; Solid State - Ambient, 1 week) | HPLC Total Area Normalization - Area % Purity [4, 8] | solubility [2] | overall hygroscopicity (in words) ([1]; DVS) | AUCINF ([3]; plasma) | AUCall ([3]; plasma) | Cmax ([3]; plasma) | T1/2 ([3]; plasma) | Tmax ([3]; plasma) | HPLC Total Area Normalization - Area % Purity ([4]; Solid State - 60 C., 1 week) | HPLC Total Area Normalization - Area % Purity [4, 9] | further results
1 | 2-amino-3-methyl-N-(2-morpholinoethyl)-pentanamide Digluconate | about 4 wt % | 45 % RH | 110 wt % | – | – | – | – | – | – | – | – | – | – | – | – | – | – | – | – | –
2 | 2-amino-3-methyl-N-(2-morpholinoethyl)-pentanamide Disulfate | about 4 wt % | 60 % RH | 140 wt % | 5.26% | 77 ng/g tissue | 99.97 Area % | 99.97 Area % | 99.94 Area % | 99.98 Area % | 99.75 Area % | – | – | 410 ng·h/mL | 416 ng·h/mL | 413 ng/mL | 66 min | 30 min | 99.98 Area % | 99.90 Area % | solubility in water ([2]; ambient temperature): > 3; Brain:Plasma Ratio [3]: 0.6-1.8; overall PK properties compared with the free base ([3]; rat, oral gavage): better PK properties than the free base; exposure (AUC and Cmax) compared with the free base ([3]; rat, oral gavage, plasma): higher exposure
3 | 2-amino-3-methyl-N-(2-morpholinoethyl)-pentanamide Monoedisylate | – | 80 % RH | – | 1.52% | 98 ng/g tissue | 99.95 Area % | 99.97 Area % | 99.86 Area % | 99.79 Area % | 99.90 Area % | – | – | 243 ng·h/mL | 247 ng·h/mL | 284 ng/mL | 42.5 min | 30 min | 99.95 Area % | 999.81 Area % | crude solubility in water [2]: ≤ 14 mg/mL; moisture sorption at 90% RH ([1]; DVS sorption phase): 85 wt %; Brain:Plasma Ratio [3]: 1.4-3.3
4 | CCC(C)C(N)C(=O)NCCN1CCOCC1.CS(=O)(=O)O.CS(=O)(=O)O (centres unmarked) [Dimesylate, 2-amino-3-methyl-N-(2-morpholinoethyl)-pentanamide Dimesylate] | about 3 wt % | 55 % RH | 110 wt % | – | – | – | – | – | – | – | ≥ 28 mg/mL | – | – | – | – | – | – | – | – | –
5 | CCC(C)C(N)C(=O)NCCN1CCOCC1.O=S(=O)(O)c1ccc2ccccc2c1.O=S(=O)(O)c1ccc2ccccc2c1 (centres unmarked) [Dinapsylate, 2-amino-3-methyl-N-(2-morpholinoethyl)-pentanamide Dinapsylate] | – | about 80 % RH | – | 3.44% | 123 ng/g tissue | 99.81 Area % | 99.85 Area % | 99.82 Area % | 99.90 Area % | 99.96 Area % | – | did not appear deliquescent | 280 ng·h/mL | 270 ng·h/mL | 335 ng/mL | 114 min | 30 min | 99.87 Area % | 99.87 Area % | water taken up at high humidity ([1]; DVS, high humidity, no equilibrium at the highest humidity): 3 to 4 wt %; overall PK properties compared with the free base ([3]; rat, oral gavage): better PK properties than the free base; terminal plasma half-life compared with the free base ([3]; rat, oral gavage, plasma): longer terminal plasma half-life

Further lines, with some results ahead:

Row | mass greater than the original value at 0% RH after desorption [1] | RH up to which the sample did not adsorb much moisture (rapid sorption above) [1] | moisture sorption at 95% RH ([1]; DVS sorption phase) | AUC%Extrap ([3]; plasma) | Maximum Brain Level [3] | HPLC Total Area Normalization - Area % Purity [4, 6] | HPLC Total Area Normalization - Area % Purity ([4]; Photo Stability - Dark Control) | HPLC Total Area Normalization - Area % Purity [4, 7] | HPLC Total Area Normalization - Area % Purity ([4]; Solid State - Ambient, 1 week) | HPLC Total Area Normalization - Area % Purity [4, 8] | solubility [2] | overall hygroscopicity (in words) ([1]; DVS) | Molecule | AUCINF ([3]; plasma) | AUCall ([3]; plasma) | Cmax ([3]; plasma) | T1/2 ([3]; plasma) | Tmax ([3]; plasma) | HPLC Total Area Normalization - Area % Purity ([4]; Solid State - 60 C., 1 week) | HPLC Total Area Normalization - Area % Purity [4, 9] | further results
6 | original weight | 45 % RH | 96 wt % | 4.81% | 105 ng/g tissue | 99.97 Area % | 99.97 Area % | 99.98 Area % | 100 Area % | 99.89 Area % | > 30 mg/mL | – | CC[C@H](C)[C@H](N)C(=O)NCCN1CCOCC1 (stereo in doubt) [Free base, 2-amino-3-methyl-N-(2-morpholinoethyl)-pentanamide] | – | – | – | – | – | – | – | degradation after heat stress by proton NMR [5]: slight degradation; moisture adsorbed from 45% to 50% RH ([1]; DVS sorption phase, 45% to 50% RH): ~10 wt %; Kp at 8 h ([3]; rat): 2 to 3.5; AUC ([3]; rat, plasma): 321 ng·h/mL; AUC(0-inf) ([3]; rat, plasma): 316 ng·h/mL; half-life ([3]; rat, plasma): 63 min; Cmax ([3]; rat, plasma, read-out: Cmax): 371 ng/mL; Tmax ([3]; rat, plasma, read-out: Tmax): 30 min
7 | – | 80 % RH | – | 1.45% | 120 ng/g tissue | 99.92 Area % | 99.94 Area % | 99.93 Area % | 99.82 Area % | 99.91 Area % | 0.5 to 0.7 mg/mL | – | CCC(C)C(N)C(=O)NCCN1CCOCC1.Cc1ccc(S(=O)(=O)O)cc1.Cc1ccc(S(=O)(=O)O)cc1 (centres unmarked) [Ditosylate, 2-amino-3-methyl-N-(2-morpholinoethyl)-pentanamide Ditosylate] | – | – | – | – | – | 99.94 Area % | 99.89 Area % | moisture sorption at 90% RH ([1]; DVS sorption phase): 30 wt %; Kp at 8 h ([3]; rat): 1 to 5.7; AUC ([3]; rat, plasma): 295 ng·h/mL; AUC(0-inf) ([3]; rat, plasma): 290 ng·h/mL; half-life ([3]; rat, plasma): 37.8 min; Cmax ([3]; rat, plasma, read-out: Cmax): 296 ng/mL; Tmax ([3]; rat, plasma, read-out: Tmax): 30 min
8 | – | 50 % RH | 1.5 wt % | – | – | – | – | – | – | – | – | did not take up much water | CCC(C)C(N)C(=O)NCCN1CCOCC1.O=C(O)C(=O)O (centres unmarked) [Monooxalate, 2-amino-3-methyl-N-(2-morpholinoethyl)-pentanamide Monooxalate] | – | – | – | – | – | – | – | –
9 | about 5 wt % | 20 % RH | 140 wt % | – | – | – | – | – | – | – | > 30 mg/mL | quite hygroscopic | CCC(C)C(N)C(=O)NCCN1CCOCC1 (centres unmarked) [di-HCl salt, 2-amino-3-methyl-N-(2-morpholinoethyl)-pentanamide] | – | – | – | – | – | – | – | –
